One test has as its system A/H1N1 virus. As to the kind of experiment: microbe, parasite or virus in culture. The class given is cell-based, influenza A virus. The settings on record: Influenza A virus, H1N1, MDCK, read-out: IC50 baloxavir (active form).
For test [1], the system named is influenza virus with M431I substitution in PB2. Conditions: cited from earlier work.
Test [2] deals with A/H1N1 I38T (I38T mutation on the PA subunit, baloxavir-resistant). The class given is cell-based, influenza A virus.

Turning to `O=C1c2c(O)c(=O)ccn2N([C@@H]2c3ccccc3SCc3c2ccc(F)c3F)[C@@H]2COCCN12` [baloxavir, baloxavir acid], the IC50 (usually the concentration that inhibits the measured activity by half) in the test with A/H1N1 virus was 0.2 nM. Turning to `O=C(O)[C@H]1C2CCC(CC2)[C@@H]1Nc1nc(-c2c[nH]c3ncc(F)cc23)ncc1F` [pimodivir], the decrease in sensitivity result in test [1] was “around 60 fold”. `COc1ccc([C@@H]2Sc3ccccc3N(CCN(C)C)C(=O)[C@@H]2OC(C)=O)cc1.Cl` [diltiazem]: the “transepithelial resistance (TEER), integrity of infected epithelia” value in test [2] was “remain stable”.

The record behind these values is patent publication US12440498B2 (priority 2020, dated 2025).
